From US10076519B2 (CYTOKINETICS, INC., priority 2010, dated 2018)

Test system: rabbit skeletal myofibrils (fast skeletal myofibrils)
Experiment: Activation of fast skeletal myofibrils (PUMA assay, PK/LDH-coupled ATPase at pCa25)
Type: biochemical
Procedure, shortened: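 Detergent-washed rabbit psoas myofibrils (~90% fast fibres, calcium-regulated) assayed at calcium giving 25% of maximal ATPase rate (pCa25). ADP turnover coupled via pyruvate kinase/lactate dehydrogenase to NADH oxidation, read at 340 nm. Buffer 12 mM PIPES, 2 mM MgCl2, 1 mM DTT, pH 6.8; AC1.4 values derived.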

[1] = AC1.4 determined according to the procedure of Example 39, reported as class symbols
[2] = median AC1.4 class, procedure of Example 39

| SMILES | Mean AC1.4 [1] | Mean AC1.4 [2] |
| --- | --- | --- |
| CC(C)(CNc1ccc(-c2cnc3[nH]ncc3c2)nn1)c1ccc(F)cc1 [[2-(4-fluorophenyl)-2-methylpropyl](6-pyrazolo[5,4-b]pyridin-5-ylpyridazin-3-yl)amine] | B (B=1-10 uM) | – |
| CC(C)(CNc1ccc(-c2cnc3cc[nH]c3c2)nn1)c1ccc(F)cc1 [[2-(4-fluorophenyl)-2-methylpropyl](6-pyrrolo[3,2-b]pyridin-6-ylpyridazin-3-yl)amine] | A (A=<1 uM) | – |
| COc1ncc(-c2ccc(NCC(C)(C)c3ccc(F)cc3)nn2)cn1 [[2-(4-fluorophenyl)-2-methylpropyl][6-(2-methoxypyrimidin-5-yl)pyridazin-3-yl]amine] | C (C=10-20 uM) | – |
| CC(C)Cc1ccc(NCC(C)(C)c2ccc(F)cc2)nn1 [[2-(4-fluorophenyl)-2-methylpropyl][6-(2-methylpropyl)pyridazin-3-yl]amine] | B (B=1-10 uM) | – |
| CC(C)(CNc1ccc(-c2ccc3[nH]nc(I)c3c2)nn1)c1ccc(F)cc1 [[2-(4-fluorophenyl)-2-methylpropyl][6-(3-iodo(1H-indazol-5-yl))pyridazin-3-yl]amine] | B (B=1-10 uM) | – |
| Cc1n[nH]c2cc(-c3ccc(NCC(C)(C)c4ccc(F)cc4)nn3)ccc12 [[2-(4-fluorophenyl)-2-methylpropyl][6-(3-methyl(1H-indazol-6-yl))pyridazin-3-yl]amine] | B (B=1-10 uM) | – |
| C=Cc1n[nH]c2ccc(-c3ccc(NCC(C)(C)c4ccc(F)cc4)nn3)cc12 [[2-(4-fluorophenyl)-2-methylpropyl][6-(3-vinyl(1H-indazol-5-yl))pyridazin-3-yl]amine] | A (A=<1 uM) | – |
| CC(C)(CNc1ccc(-c2ccc3[nH]nc(NCCOCc4ccccc4)c3c2)nn1)c1ccc(F)cc1 [[2-(4-fluorophenyl)-2-methylpropyl][6-(3-{[2-(phenylmethoxy)ethyl]amino}(1H-indazol-5-yl))pyridazin-3-yl]amine] | – | A (A=<1 uM) |
| COc1ccc(-c2ccc(NCC(C)(C)c3ccc(F)cc3)nn2)nc1 [[2-(4-fluorophenyl)-2-methylpropyl][6-(5-methoxy(2-pyridyl))pyridazin-3-yl]amine] | B (B=1-10 uM) | – |
| CNc1n[nH]c2ccc(-c3ccc(NCC(C)(C)c4ccc(F)cc4)nn3)cc12 [[2-(4-fluorophenyl)-2-methylpropyl]{6-[3-(methylamino)(1H-indazol-5-yl)]pyridazin-3-yl}amine] | B (B=1-10 uM) | – |
| CC(C)(CNc1ccc(-c2cccc(C(=O)NCCO)c2)nn1)c1ccc(F)cc1 [[3-(6-{[2-(4-fluorophenyl)-2-methylpropyl]amino}pyridazin-3-yl)phenyl]-N-(2-hydroxyethyl)carboxamide] | B (B=1-10 uM) | – |
| CN(C)C(=O)n1nc(N)c2cc(-c3ccc(NCC(C)(C)c4ccc(F)cc4)nn3)ccc21 [[3-amino-5-(6-{[2-(4-fluorophenyl)-2-methylpropyl]amino}pyridazin-3-yl)(1H-indazolyl)]-N,N-dimethylcarboxamide] | B (B=1-10 uM) | – |
| CN(C)c1n[nH]c2ccc(-c3ccc(NCC(C)(C)c4ccc(F)cc4)nn3)cc12 [[5-(6-{[2-(4-fluorophenyl)-2-methylpropyl]amino}pyridazin-3-yl)(1H-indazol-3-yl)]dimethylamine] | – | B (B=1-10 uM) |
| Fc1cccnc1C1(CNc2ccc(-c3cccc(F)c3F)nn2)CCC1 [[6-(2,3-difluorophenyl)pyridazin-3-yl]{[(3-fluoro(2-pyridyl))cyclobutyl]methyl}amine] | – | A (A=<1 uM) |
| Nc1ncccc1-c1ccc(NCC2(c3ncccc3F)CCC2)nn1 [[6-(2-amino(3-pyridyl))pyridazin-3-yl]{[(3-fluoro(2-pyridyl))cyclobutyl]methyl}amine] | – | B (B=1-10 uM) |
| CC(C)(CNc1ccc(-c2ccnc(N)c2)nn1)c1ccc(F)cc1 [[6-(2-amino(4-pyridyl))pyridazin-3-yl][2-(4-fluorophenyl)-2-methylpropyl]amine] | B (B=1-10 uM) | – |
| Nc1nccc(-c2ccc(NCC3(c4ncccc4F)CCC3)nn2)n1 [[6-(2-aminopyrimidin-4-yl)pyridazin-3-yl]{[(3-fluoro(2-pyridyl))cyclobutyl]methyl}amine] | – | B (B=1-10 uM) |

Next, values leading:

| Mean AC1.4 [1] | Mean AC1.4 [2] | SMILES |
| --- | --- | --- |
| A (A=<1 uM) | – | CC(C)(CNc1ccc(-c2ccccc2)nn1)c1ccc(F)cc1 [[2-(4-fluorophenyl)-2-methylpropyl](6-phenylpyridazin-3-yl)amine] |
| B (B=1-10 uM) | – | CC(C)(CNc1ccc(-c2cc[nH]n2)nn1)c1ccc(F)cc1 [[2-(4-fluorophenyl)-2-methylpropyl](6-pyrazol-3-ylpyridazin-3-yl)amine] |
| B (B=1-10 uM) | – | CC(C)(CNc1ccc(-c2cn[nH]c2)nn1)c1ccc(F)cc1 [[2-(4-fluorophenyl)-2-methylpropyl](6-pyrazol-4-ylpyridazin-3-yl)amine] |
| A (A=<1 uM) | – | CC(C)(CNc1ccc(-c2ccc3[nH]nc(NCC(F)(F)F)c3c2)nn1)c1ccc(F)cc1 [[2-(4-fluorophenyl)-2-methylpropyl](6-{3-[(2,2,2-trifluoroethyl)amino](1H-indazol-5-yl)}pyridazin-3-yl)amine] |
| A (A=<1 uM) | – | CC(C)Nc1n[nH]c2ccc(-c3ccc(NCC(C)(C)c4ccc(F)cc4)nn3)cc12 [[2-(4-fluorophenyl)-2-methylpropyl](6-{3-[(methylethyl)amino](1H-indazol-5-yl)}pyridazin-3-yl)amine] |
| B (B=1-10 uM) | – | Cn1ncc2ccc(-c3ccc(NCC(C)(C)c4ccc(F)cc4)nn3)cc21 [[2-(4-fluorophenyl)-2-methylpropyl][6-(1-methyl(1H-indazol-6-yl))pyridazin-3-yl]amine] |
| A (A=<1 uM) | – | CC(C)(CNc1ccc(-c2ccccc2F)nn1)c1ccc(F)cc1 [[2-(4-fluorophenyl)-2-methylpropyl][6-(2-fluorophenyl)pyridazin-3-yl]amine] |
| A (A=<1 uM) | – | COc1ncccc1-c1ccc(NCC(C)(C)c2ccc(F)cc2)nn1 [[2-(4-fluorophenyl)-2-methylpropyl][6-(2-methoxy(3-pyridyl))pyridazin-3-yl]amine] |
| B (B=1-10 uM) | – | Cc1nc2cc(-c3ccc(NCC(C)(C)c4ccc(F)cc4)nn3)ccc2[nH]1 [[2-(4-fluorophenyl)-2-methylpropyl][6-(2-methylbenzimidazol-5-yl)pyridazin-3-yl]amine] |
| B (B=1-10 uM) | – | Cc1nc2cc(-c3ccc(NCC(C)(C)c4ccc(F)cc4)nn3)ccc2o1 [[2-(4-fluorophenyl)-2-methylpropyl][6-(2-methylbenzoxazol-5-yl)pyridazin-3-yl]amine] |
| B (B=1-10 uM) | – | Cc1nc2ccc(-c3ccc(NCC(C)(C)c4ccc(F)cc4)nn3)cc2o1 [[2-(4-fluorophenyl)-2-methylpropyl][6-(2-methylbenzoxazol-6-yl)pyridazin-3-yl]amine] |
| B (B=1-10 uM) | – | CC(C)=Cc1ccc(NCC(C)(C)c2ccc(F)cc2)nn1 [[2-(4-fluorophenyl)-2-methylpropyl][6-(2-methylprop-1-enyl)pyridazin-3-yl]amine] |
| A (A=<1 uM) | – | CC(C)(CNc1ccc(-c2cccc(F)c2)nn1)c1ccc(F)cc1 [[2-(4-fluorophenyl)-2-methylpropyl][6-(3-fluorophenyl)pyridazin-3-yl]amine] |
| B (B=1-10 uM) | – | CC(C)(CNc1ccc(-c2ccc(F)cc2)nn1)c1ccc(F)cc1 [[2-(4-fluorophenyl)-2-methylpropyl][6-(4-fluorophenyl)pyridazin-3-yl]amine] |
| A (A=<1 uM) | – | COc1cccc(-c2ccc(NCC(C)(C)c3ccc(F)cc3)nn2)n1 [[2-(4-fluorophenyl)-2-methylpropyl][6-(6-methoxy(2-pyridyl))pyridazin-3-yl]amine] |
| B (B=1-10 uM) | – | CC(C)(CNc1ccc(-c2cccc(C(=O)NCCNC(=O)c3cccc(-c4ccc(NCC(C)(C)c5ccc(F)cc5)nn4)c3)c2)nn1)c1ccc(F)cc1 [[3-(6-{[2-(4-fluorophenyl)-2-methylpropyl]amino}pyridazin-3-yl)phenyl]-N-(2-{[3-(6-{[2-(4-fluorophenyl)-2-methylpropyl]amino}pyridazin-3-yl)phenyl]carbonylamino}eth-yl)carboxamide] |
| B (B=1-10 uM) | – | CNC(=O)c1cccc(-c2ccc(NCC(C)(C)c3ccc(F)cc3)nn2)c1 [[3-(6-{[2-(4-fluorophenyl)-2-methylpropyl]amino}pyridazin-3-yl)phenyl]-N-methylcarboxamide] |
| B (B=1-10 uM) | – | CC(C)(CNc1ccc(-c2cccc(CO)c2)nn1)c1ccc(F)cc1 [[3-(6-{[2-(4-fluorophenyl)-2-methylpropyl]amino}pyridazin-3-yl)phenyl]methan-1-ol] |
| A (A=<1 uM) | – | CC(C)(CNc1ccc(-c2ccc3[nH]nc(NS(C)(=O)=O)c3c2)nn1)c1ccc(F)cc1 [[5-(6-{[2-(4-fluorophenyl)-2-methylpropyl]amino}pyridazin-3-yl)(1H-indazol-3-yl)](methylsulfonyl)amine] |
| A (A=<1 uM) | – | CC(C)(CNc1ccc(-c2ccc3[nH]nc(CO)c3c2)nn1)c1ccc(F)cc1 [[5-(6-{[2-(4-fluorophenyl)-2-methylpropyl]amino}pyridazin-3-yl)-1H-indazol-3-yl]methan-1-ol] |
| A (A=<1 uM) | – | CC(C)(CNc1ccc(-c2ccc3nc(N)[nH]c3c2)nn1)c1ccc(F)cc1 [[6-(2-aminobenzimidazol-5-yl)pyridazin-3-yl][2-(4-fluorophenyl)-2-methylpropyl]amine] |
| B (B=1-10 uM) | – | CC(C)(CNc1ccc(-c2c[nH]c(N)n2)nn1)c1ccc(F)cc1 [[6-(2-aminoimidazol-4-yl)pyridazin-3-yl][2-(4-fluorophenyl)-2-methylpropyl]amine] |
| D (D=>20 uM) | – | Nc1nc(-c2ccc(NCC3(c4ncccc4F)CCC3)nn2)c[nH]1 [[6-(2-aminoimidazol-4-yl)pyridazin-3-yl]{[(3-fluoro(2-pyridyl))cyclobutyl]methyl}amine] |
